The values that follow come from US20250304623A1, “PEPTIDES FOR INTRACELLULAR DELIVERY” (UNIVERSIDADE DE SANTIAGO DE COMPOSTELA, priority 2022, published 2025).

Assay [1] has as its system Hela cells. Description: EGFP pDNA transfection, flow cytometry, HeLa. It is filed as cell-based. As to conditions: HeLa seeded at 60,000, 120,000 and 240,000 cells/mL. How it is done: For cytometry-based assays, the delivery of pDNA encoding for the expression of eGFP gene (GFP) in HeLa and A549 cells was performed. Amphiphilic molecule stock solutions in DMSO were diluted with DMEM and freshly mixed with pDNA stock solutions in DMEM prior to transfection experiments, to afford several complexes at different amphiphile concentration (2.5-10 μM) while maintaining a constant final pDNA concentration of 2 ng/μL. The mixture was shaken for 30 min at room temperature before the addition to the cells. The cell medium was aspirated, and cells were washed twice with PBS. Finally, 50 μL of the complex's solution were added to the cells and incubated for 4 h. After the incubation, the medium was replaced by 100 μL of fresh DMEM supplemented with 10% FBS. 72 hours after transfection the DMEM was removed, and cells were cultured for 5 min with 100 μL of trypsin. Then, 100 μL of PBS (supplemented with 2% FBS and 1% EDTA 0.5M) were added. Finally, the GFP fluorescent measurement was performed in a flow cytometer and the percentage of GFP positive (i.e., transfected cells) were quantified. Amphiphile transfection efficiency was compared to control, non-treated cells and all experiments were done in triplicate.
7.3(Leu-His) peptide with D-amino acids was synthesized. This peptide would be more resistant to the degradation by proteases. The inventors studied the delivery of EGFP pDNA using amphiphiles comprising either enantiomer (either 7.3(Leu-His) peptide with D-amino acids or with L-amino acids) and myristoleyl aldehyde to compare their transfecting activity in HeLa cells. Number of EGFP expressing cells was measured by flow cytometry.
Experiments in cultured cells at different confluence levels were performed to check the effect of this parameter on the activity of amphiphile 7.3(Leu-His) M. As described above, transfection experiments are usually performed on cells seeded the day before at a cell concentration of 60,000 cell/mL (100 μL/well). In the current example, transfection experiments with EGFP pDNA are performed in HeLa cells two and four times more concentrated (120,000 and 240,000 cells/mL, respectively). […] However, for this experiment more volume of complex amphiphile/pDNA was needed as the cell concentration was increased (50, 100 and 200 μL of complexes were used for 60,000, 120,000 and 240,000 cells/mL, respectively).
Several structural modifications were performed on the peptide 7.3(Leu-His). The delivery of EGFP pDNA in HeLa cells using amphiphiles comprising these peptides and myristoleyl aldehyde was tested. The modifications consisted of the modification in the order of the amino acids, the replacement of 1 to 3 K* residues for O* residues and the addition of 1 or 2 R residues on the N-terminus. […]

Assay [2] relates to mice. Description: In vivo FLuc mRNA delivery, i.v. injection, predilution formulation, BLI. As to conditions: i.v. tail vein, organs after 24 h. The procedure:
FIG. 10A In vivo mRNA transfection. Representative bioluminescence images of animals and extracted organs following i.v. (intravenous) injection of FLuc mRNA/amphiphile complexes (0, 2.5 and 5 μM of 7.3(Leu-His) M) at different times (1 h, 4 h, 7 h and 24 h). 1.3 μg FLuc mRNA were used in all conditions. FIG. 10B Quantification of the organs' bioluminescence
In the case of i.v. administration (tail vein), luciferase expression was evaluated over 24 h, starting at 1 h after the administration of mRNA complexes. After that time, the specimens were sacrificed, and each organ was analysed individually using BLI for quantification of the expression. In this case, preferred conditions involved the injection of 50 μL of complex solution in a suitable buffer, such as PBS, or phosphate buffer enriched with inorganic salts, comprising 2.5 μM 7.3(Leu-His) M and 1.3 μg/mouse FLuc mRNA.

The test system of assay [3] is Ai14 mice. Description: In vivo gene editing by Cre mRNA delivery, tdTomato fluorescence. Particulars: i.v.; 7 μg Cre mRNA; 1:1 and 5:1 mass ratio amphiphile:mRNA; 2 days. How it is done:
In vivo gene editing enables localization and quantification of expression following Cre recombinase mRNA delivery in Ai14 mice, a reporter strain that expresses tdTomato fluorescence after Cre-mediated recombination.
The inventors evaluated the mRNA delivery efficiency of amphiphile by i.v. injections of an amphiphile-complexed Cre recombinase mRNA (CleanCap® Cre mRNA (5moU), TriLink, L-7211) in Ai14 mice. Amphiphilic molecule stock solutions were prepared in DMSO as described above. The solutions of mRNA/amphiphile complexes were freshly prepared prior to in vivo experiments. Amphiphile solutions in DMSO were mixed with mRNA solutions in a suitable buffer, such as PBS, or phosphate buffer enriched with inorganic salts (1:1 and 5:1 mass ratio, final amount of mRNA per mice=7 μg/mouse). The mixture was shaken for 30 min at room temperature before injection. For each mouse, 7 μg mRNA was complexed with 7.3(Leu-His) with myristoleyl aldehyde (7.3(Leu-His) M), and administered by i.v. injection in the tail vein in 100 μL of a suitable buffer, such as PBS, or phosphate buffer enriched with inorganic salts. As control, 7 μg of naked mRNA was injected in three mice. After 2 days, mice were sacrificed and were imaged to confirm tdTomato expression.

Assay [4] relates to HepG2.

Starred links: 1 amine or outer side, 2 acyl side, 3 side chain; linkers in the order of their positions; H or OH if unused. Residues, ends and D or L forms follow the SMILES beside them. Groups on a side chain read outwards from the residue. *: point of attachment. Glutaryl = O=C(CCCC(=O)[*:2])[*:1]; X1 = CCCC/C=C\CCCCCCCC=NN*

For orientation: IC50 means the concentration that gives 50% inhibition. A higher IC50 goes with lower potency. As for `CCCC/C=C\CCCCCCCC=NNC(=O)CCCC(=O)NCCCC[C@H](NC(=O)[C@H](CCCCNC(=O)CCCC(=O)NN=CCCCCCCC/C=C\CCCC)NC(=O)[C@H](CCCNC(=N)N)NC(=O)[C@H](Cc1c[nH]cn1)NC(=O)[C@H](CCCCNC(=O)CCCC(=O)NN=CCCCCCCC/C=C\CCCC)NC(=O)[C@H](CCCNC(=N)N)NC(C)=O)C(=O)N[C@@H](Cc1c[nH]cn1)C(N)=O` [7.3(Leu-His) M] (Ac-RK([Glutaryl-X1])HRK([Glutaryl-X1])K([Glutaryl-X1])H-NH2), in assay [1], the “EGFP pDNA transfection at different cell confluence” value is given as “performs equally well at all cell concentrations tested”. For the same molecule, the biodistribution of bioluminescence result in assay [2] is “a preferred spleen biodistribution of the bioluminiscence was observed, followed by liver expression and, to a lesser extent, in the lungs”. Also, the “tdTomato expression in organs” value in assay [3] is “expression of tdTomato protein was observed preferably in spleen and lungs, being more intense when using 5:1 mass ratio amphiphile:mRNA”. The molecule further came in with an IC50 in assay [4] of approximately 60 µM.
